The values that follow come from ChEMBL document CHEMBL1649144, “Breakpoints for susceptibility testing should not divide wild-type distributions of important target species” (2009).

The structures appear in SMILES notation. ≈ marks a conversion by molar mass, not a printed value.

Holding throughout (type): functional
For experiment [1], the system named is Nakaseomyces glabratus. The experiment is described as follows: Antimicrobial activity against Candida glabrata SSI-M68190-2007 by EUCAST method.
Another experiment concerns Candida parapsilosis. The experiment can be described thus: Antimicrobial activity against Candida parapsilosis ATCC 21019 by EUCAST method. The following applies: Lodderomyces parapsilosis.
Experiment [2] has as its system Nakaseomyces glabratus. The experiment can be described thus: Antimicrobial activity against Candida glabrata by EUCAST method.

For the compound `OC(Cn1cncn1)(Cn1cncn1)c1ccc(F)cc1F` [FLUCONAZOLE], the results for the MIC in the experiment with Nakaseomyces glabratus [1], in the experiment with Candida parapsilosis and in the experiment with Nakaseomyces glabratus [2] were 0.5 µg/mL (≈ 1.63 µM), 0.5 µg/mL (≈ 1.63 µM) and 8 µg/mL (≈ 26.1 µM), respectively.

A word on the MIC: it is the smallest concentration in the dilution series that meets the test's criterion for growth inhibition. Low readings indicate inhibition by little substance, high ones a need for much substance.
